Publication PMC5814057, “Folic acid derived-P5779 mimetics regulate DAMP-mediated inflammation through disruption of HMGB1:TLR4:MD-2 axes” (PLoS ONE, 2018)

Key:
MD-2 = biological target: T1, MD-2 (Homo sapiens, UniProt Q9Y6Y9); experiment: SPR direct binding to immobilized MD-2 (Biacore T200); conditions: MD-2 immobilized on CM5 chip
T1 construct: purchased R&D Systems 1787-MD
T1 sequence (Q9Y6Y9 19-160): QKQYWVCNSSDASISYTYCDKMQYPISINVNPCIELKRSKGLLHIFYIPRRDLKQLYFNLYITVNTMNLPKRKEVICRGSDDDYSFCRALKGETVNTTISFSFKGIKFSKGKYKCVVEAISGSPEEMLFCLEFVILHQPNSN
Procedure: (§1) Biacore T200 (GE Healthcare, USA) was used for real-time binding interaction studies. […] For binding analyses, CM5 series chips (GE Healthcare) were activated and the reference flow-cell was blocked by 1 M ethanolamine (pH = 8.5). The ligand protein MD-2 dilution (10 ug/mL in 10 mM Acetate buffer pH 5) or HMGB1 (20 ug/mL in 10 mM acetate buffer pH = 4.5) or TLR4/MD2 complex (10 ug/mL in 10 mM acetate buffer pH 4.5) were subjected to the sample flow-cell at the flow rate of 10 uL/min until the surface Plasmon resonance reached 1000–2000 RU. Analytes (Folic acid analogues) diluted into 5 different concentrations were sequentially injected at a flow rate of 30uL/min for 60s or 120s (TLR4/MD-2). The dissociation time was set for 1 minute or 2 minutes (TLR4/MD-2). The equilibrium dissociation constant (KD) was obtained to evaluate the binding affinity by using the BIAEvaluation 2.0 software (GE Healthcare) supposing a 1:1 binding ratio. At least 3 independent experiments were performed.

TLR4/MD-2 complex = biological target: T2, TLR4/MD-2 complex (Homo sapiens, UniProt O00206+Q9Y6Y9); experiment: SPR direct binding to immobilized TLR4/MD-2 complex; conditions: TLR4/MD-2 complex immobilized
T2 construct: purchased R&D Systems 3146-TM-050
Procedure: Biacore T200 (GE Healthcare, USA) was used for real-time binding interaction studies. Recombinant human TLR4/MD2 (R&D 3146-TM-050) complex protein and MD2 (R&D 1787-MD) protein were purchased from R&D Systems (Minneapolis, USA). For binding analyses, CM5 series chips (GE Healthcare) were activated and the reference flow-cell was blocked by 1 M ethanolamine (pH = 8.5). The ligand protein MD-2 dilution (10 ug/mL in 10 mM Acetate buffer pH 5) or HMGB1 (20 ug/mL in 10 mM acetate buffer pH = 4.5) or TLR4/MD2 complex (10 ug/mL in 10 mM acetate buffer pH 4.5) were subjected to the sample flow-cell at the flow rate of 10 uL/min until the surface Plasmon resonance reached 1000–2000 RU. Analytes (Folic acid analogues) diluted into 5 different concentrations were sequentially injected at a flow rate of 30uL/min for 60s or 120s (TLR4/MD-2). The dissociation time was set for 1 minute or 2 minutes (TLR4/MD-2). The equilibrium dissociation constant (KD) was obtained to evaluate the binding affinity by using the BIAEvaluation 2.0 software (GE Healthcare) supposing a 1:1 binding ratio. At least 3 independent experiments were performed.

HMGB1 = experiment: SPR direct binding to immobilized HMGB1
Procedure: as §1

[1] = Stability of compound noted for the SPR experiment; format: physicochemical; conditions: excluded from the SPR experiment

T2 sequence (O00206 24-631 limits assumed): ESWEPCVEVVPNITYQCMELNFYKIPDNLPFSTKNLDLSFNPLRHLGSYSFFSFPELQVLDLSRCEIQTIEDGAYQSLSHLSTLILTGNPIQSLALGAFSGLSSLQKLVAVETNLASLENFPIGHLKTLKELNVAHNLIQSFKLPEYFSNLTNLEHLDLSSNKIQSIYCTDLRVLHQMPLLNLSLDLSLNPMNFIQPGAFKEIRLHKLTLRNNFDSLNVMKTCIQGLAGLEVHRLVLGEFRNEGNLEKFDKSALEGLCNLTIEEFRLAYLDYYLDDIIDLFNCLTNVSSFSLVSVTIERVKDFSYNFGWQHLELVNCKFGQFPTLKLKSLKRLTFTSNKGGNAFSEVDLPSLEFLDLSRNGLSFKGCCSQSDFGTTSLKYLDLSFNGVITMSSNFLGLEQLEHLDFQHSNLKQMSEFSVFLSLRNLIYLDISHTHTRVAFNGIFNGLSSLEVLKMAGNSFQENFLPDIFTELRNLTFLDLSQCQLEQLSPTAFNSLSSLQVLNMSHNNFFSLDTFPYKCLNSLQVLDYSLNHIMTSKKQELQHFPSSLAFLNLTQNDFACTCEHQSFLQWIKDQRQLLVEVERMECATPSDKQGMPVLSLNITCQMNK
T2 sequence (Q9Y6Y9 17-160 limits assumed): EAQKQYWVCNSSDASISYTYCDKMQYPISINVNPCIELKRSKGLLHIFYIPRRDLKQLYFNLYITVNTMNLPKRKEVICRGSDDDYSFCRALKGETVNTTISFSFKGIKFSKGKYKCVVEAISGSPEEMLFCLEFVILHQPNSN

| Compound | Kd (MD-2) | Kd (MD-2; 1:1 binding) | other results |
| --- | --- | --- | --- |
| Nc1nc(N)c2nc(CNc3ccc(C(=O)N[C@@H](CCC(=O)O)C(=O)O)cc3)cnc2n1 [Aminopterin, aminopterin] | 301 nM | – | – |
| Nc1nc(=O)c2nc(CNc3ccc(C(=O)N[C@@H](CCC(=O)O)C(=O)O)cc3)cnc2[nH]1 [Folic acid, folic acid] | – | 2390 nM | binding to MD-2 (in words) (MD-2): moderate binding; Kd (TLR4/MD-2 complex): 537 nM |
| Nc1nc2c(c(=O)[nH]1)N(C=O)C(CNc1ccc(C(=O)N[C@@H](CCC(=O)O)C(=O)O)cc1)CN2 (stereo partly drawn) [Leucovorin, leucovorin] | – | 15000 nM | – |
| CN(Cc1cnc2nc(N)nc(N)c2n1)c1ccc(C(=O)N[C@@H](CCC(=O)O)C(=O)O)cc1 [Methotrexate, methotrexate] | 214 nM | – | binding to HMGB1 (HMGB1): no binding |
| C#CCC(Cc1cnc2nc(N)nc(N)c2n1)c1ccc(C(=O)N[C@@H](CCC(=O)O)C(=O)O)cc1 (stereo partly drawn) [Pralatrexate, pralatrexate] | – | 1870 nM | – |
| Nc1nc(=O)c2c([nH]1)NCC(CNc1ccc(C(=O)NC(CCC(=O)O)C(=O)O)cc1)N2 (stereo not drawn) [Tetrahydrofolic acid, tetrahydrofolic acid] | – | – | stability [1]: decomposition over time |
